Experimental data: ChEMBL document CHEMBL1909046, “DrugMatrix in vitro pharmacology data”

What was measured:
Melanocortin receptor 3 = Melanocortin receptor 3 (Homo sapiens, UniProt P41968); type: cell membranes, HEK293, Membrane; conditions: hek293; also: in other assays of this panel Not Active means under 50% inhibition at 10 µM
Interstitial collagenase = target: T1, Interstitial collagenase (Homo sapiens, UniProt P03956); assay: biochemical; type: tissue-based, Rheumatoid synovial fibroblasts;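 also: MMP-1 enzyme inhibition assay using a peptide substrate; in other assays of this panel Not Active means under 50% inhibition at 10 µM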
T1 sequence (P03956 whole entry): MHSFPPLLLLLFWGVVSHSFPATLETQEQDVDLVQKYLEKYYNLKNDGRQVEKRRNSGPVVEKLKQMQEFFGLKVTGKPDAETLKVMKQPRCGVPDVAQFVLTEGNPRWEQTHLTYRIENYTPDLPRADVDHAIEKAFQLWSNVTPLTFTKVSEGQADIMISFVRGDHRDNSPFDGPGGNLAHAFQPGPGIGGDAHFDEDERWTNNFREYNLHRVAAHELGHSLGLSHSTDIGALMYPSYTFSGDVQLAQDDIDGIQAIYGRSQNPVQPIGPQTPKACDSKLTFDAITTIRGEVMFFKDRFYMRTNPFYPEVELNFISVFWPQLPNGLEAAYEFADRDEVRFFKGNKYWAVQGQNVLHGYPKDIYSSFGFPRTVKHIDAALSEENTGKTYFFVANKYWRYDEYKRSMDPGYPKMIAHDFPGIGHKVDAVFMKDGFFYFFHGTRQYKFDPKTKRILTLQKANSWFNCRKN

[1] = DRUGMATRIX: Glutamate, AMPA radioligand binding (ligand: [3H] AMPA); type: cell membranes, Rattus norvegicus, Wistar, Cerebral cortex, Membrane; conditions: Not Active = under 50% inhibition at 10 µM
[2] = target: Sigma non-opioid intracellular receptor 1 (Homo sapiens, UniProt Q99720); assay: DRUGMATRIX: Sigma1 radioligand binding (ligand: [3H] Haloperidol); type: cell membranes, Jurkat, Membrane; conditions: Not Active = under 50% inhibition at 10 µM
Chain of Sigma non-opioid intracellular receptor 1 (Q99720 whole entry): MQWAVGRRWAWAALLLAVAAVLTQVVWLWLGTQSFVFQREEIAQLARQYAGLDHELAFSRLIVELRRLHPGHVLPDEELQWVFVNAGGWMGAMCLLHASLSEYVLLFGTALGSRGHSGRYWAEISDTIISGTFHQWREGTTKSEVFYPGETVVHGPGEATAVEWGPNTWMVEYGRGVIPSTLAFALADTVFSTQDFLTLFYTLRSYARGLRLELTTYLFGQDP

Melanocortin receptor 5 = Melanocortin receptor 5 (Homo sapiens, UniProt P33032); type: cell membranes, HEK293, Membrane; conditions: hek293; also: in other assays of this panel Not Active means under 50% inhibition at 10 µM
Chain of Melanocortin receptor 5 (P33032 whole entry): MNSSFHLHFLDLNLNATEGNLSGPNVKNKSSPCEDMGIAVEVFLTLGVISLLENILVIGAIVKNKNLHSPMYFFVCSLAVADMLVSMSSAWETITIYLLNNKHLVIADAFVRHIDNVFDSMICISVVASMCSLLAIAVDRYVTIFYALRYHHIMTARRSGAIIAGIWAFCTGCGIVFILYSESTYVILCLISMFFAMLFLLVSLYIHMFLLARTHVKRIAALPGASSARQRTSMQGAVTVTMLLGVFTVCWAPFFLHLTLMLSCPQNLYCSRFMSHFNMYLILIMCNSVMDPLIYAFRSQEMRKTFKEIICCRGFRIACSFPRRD

Adenosine receptor A1 = target: T2, Adenosine receptor A1 (Homo sapiens, UniProt P30542); type: cell membranes, CHO, Membrane; conditions: cho;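 also: radioligand binding assay at the adenosine A1 receptor, with DPCPX serving as the labelled ligand; in other assays of this panel Not Active means under 50% inhibition at 10 µM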
T2 sequence (P30542 whole entry): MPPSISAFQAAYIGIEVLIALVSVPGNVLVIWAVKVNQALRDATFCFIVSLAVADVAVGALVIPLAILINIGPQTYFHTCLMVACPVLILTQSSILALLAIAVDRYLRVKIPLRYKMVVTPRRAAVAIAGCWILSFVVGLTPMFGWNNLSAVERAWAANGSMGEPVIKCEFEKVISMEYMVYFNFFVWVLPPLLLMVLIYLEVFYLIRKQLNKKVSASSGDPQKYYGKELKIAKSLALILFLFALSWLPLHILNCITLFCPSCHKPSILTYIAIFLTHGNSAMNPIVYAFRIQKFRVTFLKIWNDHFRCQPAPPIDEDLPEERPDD

Chain of Melanocortin receptor 3 (P41968 whole entry): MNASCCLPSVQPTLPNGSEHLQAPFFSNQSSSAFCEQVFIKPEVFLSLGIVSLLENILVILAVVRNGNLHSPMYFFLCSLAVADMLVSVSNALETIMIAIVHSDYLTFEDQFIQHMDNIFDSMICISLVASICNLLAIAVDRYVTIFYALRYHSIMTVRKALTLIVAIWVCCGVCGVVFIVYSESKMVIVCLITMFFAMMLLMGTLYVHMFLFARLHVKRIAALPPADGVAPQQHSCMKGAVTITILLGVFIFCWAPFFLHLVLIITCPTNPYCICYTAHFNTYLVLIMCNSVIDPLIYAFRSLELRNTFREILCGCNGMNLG

Compound	IC50 (Melanocortin receptor 3)	IC50 (Interstitial collagenase)	IC50 [1]	Ki [1]	IC50 ([2]; jurkat)	IC50 (Melanocortin receptor 5)	IC50 (Adenosine receptor A1)	IC50 ([2]; read-out: IC50)	Ki ([2]; read-out: Ki)
CC(Cl)(Cl)Cl [TRICHLOROETHANE]	Not Active	Not Active	Not Active	Not Active	Not Active	Not Active	Not Active		
CC(C)(C)NC[C@H](O)COc1cccc2c1CCCC2=O [LEVOBUNOLOL]	Not Active	Not Active	Not Active	Not Active		Not Active	Not Active	773 nM	325 nM
CCN1CCCC1CNC(=O)c1cc(S(N)(=O)=O)ccc1OC (configuration not stated) [SULPIRIDE]	Not Active	Not Active	Not Active	Not Active	Not Active	Not Active	Not Active		
Cc1cccc(C)c1NC(=O)C(C)N (configuration not stated) [TOCAINIDE]	Not Active	Not Active	Not Active	Not Active	Not Active	Not Active	Not Active		
CCOC(=O)C1=C(C)NC(C)=C(C(=O)OCC)C1c1ccccc1/C=C/C(=O)OC(C)(C)C [LACIDIPINE]	Not Active	Not Active	Not Active	Not Active	Not Active	Not Active	Not Active		
C=CCc1ccc2c(c1)OCO2 [SAFROLE]	Not Active	Not Active	Not Active	Not Active	Not Active	Not Active	Not Active		
O=C(OC[C@H]1O[C@@H](OC(=O)c2cc(O)c(O)c(OC(=O)c3cc(O)c(O)c(O)c3)c2)[C@H](OC(=O)c2cc(O)c(O)c(OC(=O)c3cc(O)c(O)c(O)c3)c2)[C@@H](OC(=O)c2cc(O)c(O)c(OC(=O)c3cc(O)c(O)c(O)c3)c2)[C@@H]1OC(=O)c1cc(O)c(O)c(OC(=O)c2cc(O)c(O)c(O)c2)c1)c1cc(O)c(O)c(OC(=O)c2cc(O)c(O)c(O)c2)c1 [TANNIC ACID]	Not Active	Not Active	Not Active	Not Active	Not Active	Not Active	Not Active		
CO[C@@]12[C@H](COC(N)=O)C3=C(C(=O)C(C)=C(N)C3=O)N1C[C@@H]1N[C@@H]12 [MITOMYCIN]	Not Active	Not Active	Not Active	Not Active	Not Active	Not Active	Not Active		
CN1C[C@H](CNC(=O)OCc2ccccc2)C[C@@H]2c3cccc4c3c(cn4C)C[C@H]21 [METERGOLINE]	Not Active	Not Active	Not Active	Not Active	Not Active	Not Active	Not Active		
Cc1[nH]c(=O)c(C#N)cc1-c1ccncc1 [MILRINONE]	Not Active	Not Active	Not Active	Not Active	Not Active	Not Active	Not Active		
O=C1CC[C@@]2(O)[C@H]3Cc4ccc(O)c5c4[C@@]2(CCN3CC2CC2)[C@H]1O5 [NALTREXONE]	Not Active	Not Active	Not Active	Not Active	Not Active	Not Active	Not Active		
COC(=O)Nc1nc2ccc(C(=O)c3ccccc3)cc2[nH]1 [MEBENDAZOLE]	Not Active	Not Active	Not Active	Not Active	Not Active	Not Active	Not Active		
CC(=O)O[C@]1(C(C)=O)CC[C@H]2[C@@H]3C[C@H](C)C4=CC(=O)CC[C@]4(C)[C@H]3CC[C@@]21C [MEDROXYPROGESTERONE ACETATE]	Not Active	Not Active	Not Active	Not Active	Not Active	Not Active	Not Active		
Cc1cn([C@H]2C=C[C@@H](CO)O2)c(=O)[nH]c1=O [STAVUDINE]	Not Active	Not Active	Not Active	Not Active	Not Active	Not Active	Not Active		
Cc1cnc(NC(=O)C2=C(O)c3ccccc3S(=O)(=O)N2C)s1 [MELOXICAM]	Not Active	Not Active	Not Active	Not Active	Not Active	Not Active	Not Active		
CC(O)C(=O)O (configuration not stated) [LACTIC ACID]	Not Active	Not Active	Not Active	Not Active	Not Active	Not Active	Not Active		
C1CCN2C[C@@H]3C[C@@H](CN4CCCC[C@@H]34)[C@H]2C1 [SPARTEINE]	Not Active	Not Active	Not Active	Not Active	Not Active	Not Active	Not Active		
CC(N)C12CC3CC(CC(C3)C1)C2 (configuration not stated) [RIMANTADINE]	Not Active	Not Active	Not Active	Not Active	Not Active	Not Active	Not Active		
